Measurements as given in the NIST ThermoML archive (doi:10.1016/j.jct.2015.04.006).
± gives the expanded uncertainty stated by the source.

Key:
[1] = mn = molality of the nth substance listed, in mol/kg; conditions: 100 kPa, Liquid, m2 = 0; for speed of sound: Frequency=3 MHz, Sing-around technique in a fixed-path interferometer; for mass density: Vibrating tube method
[2] = 100 kPa, Liquid; for speed of sound: Frequency=3 MHz, Sing-around technique in a fixed-path interferometer; for mass density: Vibrating tube method

C[S+](C)[O-] [dimethyl sulfoxide] + CC[N+]1(C)CCOCC1.O=S(=O)([N-]S(=O)(=O)C(F)(F)F)C(F)(F)F showed a speed of sound ([1]; 298.15 K) of 1484.6 ± 1.2 m/s, a mass density ([1]; 298.15 K) of 1095.28 ± 0.26 kg/m3 and a speed of sound ([1]; 303.15 K) of 1467.7 ± 1.2 m/s. It also gave a mass density ([1]; 303.15 K) of 1090.26 ± 0.26 kg/m3, a speed of sound ([1]; 308.15 K) of 1450.8 ± 1.2 m/s and a mass density ([1]; 308.15 K) of 1085.24 ± 0.26 kg/m3. It also gave a speed of sound ([1]; 313.15 K) of 1434.1 ± 1.2 m/s, a mass density ([1]; 313.15 K) of 1080.22 ± 0.26 kg/m3 and a speed of sound ([1]; 318.15 K) of 1417.5 ± 1.2 m/s. For the same compound, the mass density ([1]; 318.15 K) was 1075.21 ± 0.26 kg/m3.

With C[S+](C)[O-] [dimethyl sulfoxide] + CCCCCCCC[N+]1(C)CCOCC1.O=S(=O)([N-]S(=O)(=O)C(F)(F)F)C(F)(F)F the speed of sound ([1]; 298.15 K) was 1484.6 ± 1.2 m/s, the mass density ([1]; 298.15 K) was 1095.28 ± 0.21 kg/m3 and the speed of sound ([1]; 303.15 K) was 1467.7 ± 1.2 m/s. It also gave a mass density ([1]; 303.15 K) of 1090.26 ± 0.21 kg/m3, a speed of sound ([1]; 308.15 K) of 1450.8 ± 1.2 m/s and a mass density ([1]; 308.15 K) of 1085.24 ± 0.21 kg/m3. The speed of sound ([1]; 313.15 K) was 1434.1 ± 1.2 m/s, the mass density ([1]; 313.15 K) was 1080.22 ± 0.21 kg/m3 and the speed of sound ([1]; 318.15 K) was 1417.5 ± 1.2 m/s. It also gave a mass density ([1]; 318.15 K) of 1075.21 ± 0.21 kg/m3.

Work on C[S+](C)[O-] [dimethyl sulfoxide] + CCCC[N+]1(C)CCOCC1.O=S(=O)([N-]S(=O)(=O)C(F)(F)F)C(F)(F)F yielded a speed of sound ([1]; 298.15 K) of 1484.6 ± 1.2 m/s, a mass density ([1]; 298.15 K) of 1095.28 ± 0.24 kg/m3 and a speed of sound ([1]; 303.15 K) of 1467.7 ± 1.2 m/s. It also gave a mass density ([1]; 303.15 K) of 1090.26 ± 0.24 kg/m3, a speed of sound ([1]; 308.15 K) of 1450.8 ± 1.2 m/s and a mass density ([1]; 308.15 K) of 1085.24 ± 0.24 kg/m3. For the same compound, the speed of sound ([1]; 313.15 K) was 1434.1 ± 1.2 m/s, the mass density ([1]; 313.15 K) was 1080.22 ± 0.24 kg/m3 and the speed of sound ([1]; 318.15 K) was 1417.5 ± 1.2 m/s. It also gave a mass density ([1]; 318.15 K) of 1075.21 ± 0.24 kg/m3.

Work on C[S+](C)[O-] [dimethyl sulfoxide] yielded a speed of sound ([2]; 298.15 K) of 1484.6 ± 1.2 m/s, a mass density ([2]; 298.15 K) of 1095.28 ± 0.21 kg/m3 and a speed of sound ([2]; 303.15 K) of 1467.7 ± 1.2 m/s. It also gave a mass density ([2]; 303.15 K) of 1090.26 ± 0.26 kg/m3, a speed of sound ([2]; 308.15 K) of 1450.8 ± 1.2 m/s and a mass density ([2]; 308.15 K) of 1085.24 ± 0.24 kg/m3. For the same compound, the speed of sound ([2]; 313.15 K) was 1434.1 ± 1.2 m/s, the mass density ([2]; 313.15 K) was 1080.22 ± 0.24 kg/m3 and the speed of sound ([2]; 318.15 K) was 1417.5 ± 1.2 m/s. It also gave a mass density ([2]; 318.15 K) of 1075.21 ± 0.26 kg/m3.
